# Source: patent US20260049077A1, “Neurotrophic Receptor Tyrosine Kinase (NTRK) Inhibitors and Methods Using Same” (Baylor College of Medicine, priority 2022, published 2026)
# Where two headings read alike, the source gives them in different places.
# Tests used:
# 192 kinases = experiment: Promega K192 cell-based NanoBRET kinase occupancy assay (panel); conditions: 1 μM
# Description: (§1) Similarly, the selectivity of CDD-3031 for NTRK kinases was evaluated in a kinase occupancy assay (Promega K192 cell-based NanoBRET assay) using 192 kinases (Table 4).
# AURKC = AURKC (Homo sapiens (Human), UniProt Q9UQB9); experiment: Promega K192 cell-based NanoBRET kinase occupancy assay
# Description: as §1
# CSNK1A1L = CSNK1A1L (Homo sapiens (Human), UniProt Q8N752); experiment: as above
# Description: as §1
# DYRK1A = DYRK1A (Homo sapiens (Human), UniProt Q13627); experiment: as above
# Description: as §1
# NEK5 = NEK5 (Homo sapiens (Human), UniProt Q6P3R8); experiment: as above
# Description: as §1
# TEK = TEK (Homo sapiens (Human), UniProt Q02763); experiment: as above
# Description: as §1
# ULK2 = ULK2 (Homo sapiens (Human), UniProt Q8IYT8); experiment: as above
# Description: as §1
# [1] = Pharmacokinetics of CDD-3031 in mice, oral gavage; type: in vivo, mouse; conditions: oral gavage 50 mg/kg, n = 3, mean ± SD
# Description: CDD-2330 was dissolved in 10% DMSO+0.5% methyl cellulose at 5 mg/mL. CDD-2330 was orally delivered at 50 mg/kg to mice (n=4). Blood samples were collected at 0, 0.25, 0.5, 1, 2, 4, 6, 8, and 24 h. Samples were analyzed by LC-MS, and the concentration of CDD-2330 was quantified with a standard curve (range: 0-10 μM). CDD-3031 was administered by oral gavage at a dose of 50 mg/kg. Blood samples were collected at […], 0.167, 0.25, 0.5, 1, 2, 4, 6, 8, and 24 h.
# endometriotic lesions = experiment: Endometriosis mouse model, lesion efficacy; type: in vivo; conditions: 10 mg/kg, excised lesions
# Description: FIGS. 17A-17F depict the robust efficacy of the inhibitory compounds of the present disclosure as NTRK2 inhibitors for inhibition of endometriotic lesion growth in mice utilizing CDD-3132 as an example. FIG. 17A provides a schematic overview of the experiment performed. FIGS. 17B-17C provide photographs showing excised lesions with administration of a control (FIG. 17B) or CDD-3132 (10 mg/kg/day) (FIG. 17C).
# In one aspect, the present disclosure provides exemplary data relating to the administration of NTRK2 inhibitors in a mouse model of endometriosis (FIG. 14). In certain embodiments, the recipient mouse is administered the NTRK2 inhibitor and/or controls on day 14 after intraperitoneal injection of endometrium of the donor mouse. In certain embodiments, the recipient mouse is sacrificed and quantitatively assessed on day 28.
# NTRK3 = NTRK3 (Homo sapiens (Human), UniProt Q16288); experiment: NTRK3 inhibition (IC50); conditions: read-out: NTRK3 IC50
# [2] = Metabolic stability in mouse liver microsomes (MLM)
# [3] = Metabolic stability in human liver microsomes (HLM)
# Sequence of ULK2 (Q8IYT8 whole entry): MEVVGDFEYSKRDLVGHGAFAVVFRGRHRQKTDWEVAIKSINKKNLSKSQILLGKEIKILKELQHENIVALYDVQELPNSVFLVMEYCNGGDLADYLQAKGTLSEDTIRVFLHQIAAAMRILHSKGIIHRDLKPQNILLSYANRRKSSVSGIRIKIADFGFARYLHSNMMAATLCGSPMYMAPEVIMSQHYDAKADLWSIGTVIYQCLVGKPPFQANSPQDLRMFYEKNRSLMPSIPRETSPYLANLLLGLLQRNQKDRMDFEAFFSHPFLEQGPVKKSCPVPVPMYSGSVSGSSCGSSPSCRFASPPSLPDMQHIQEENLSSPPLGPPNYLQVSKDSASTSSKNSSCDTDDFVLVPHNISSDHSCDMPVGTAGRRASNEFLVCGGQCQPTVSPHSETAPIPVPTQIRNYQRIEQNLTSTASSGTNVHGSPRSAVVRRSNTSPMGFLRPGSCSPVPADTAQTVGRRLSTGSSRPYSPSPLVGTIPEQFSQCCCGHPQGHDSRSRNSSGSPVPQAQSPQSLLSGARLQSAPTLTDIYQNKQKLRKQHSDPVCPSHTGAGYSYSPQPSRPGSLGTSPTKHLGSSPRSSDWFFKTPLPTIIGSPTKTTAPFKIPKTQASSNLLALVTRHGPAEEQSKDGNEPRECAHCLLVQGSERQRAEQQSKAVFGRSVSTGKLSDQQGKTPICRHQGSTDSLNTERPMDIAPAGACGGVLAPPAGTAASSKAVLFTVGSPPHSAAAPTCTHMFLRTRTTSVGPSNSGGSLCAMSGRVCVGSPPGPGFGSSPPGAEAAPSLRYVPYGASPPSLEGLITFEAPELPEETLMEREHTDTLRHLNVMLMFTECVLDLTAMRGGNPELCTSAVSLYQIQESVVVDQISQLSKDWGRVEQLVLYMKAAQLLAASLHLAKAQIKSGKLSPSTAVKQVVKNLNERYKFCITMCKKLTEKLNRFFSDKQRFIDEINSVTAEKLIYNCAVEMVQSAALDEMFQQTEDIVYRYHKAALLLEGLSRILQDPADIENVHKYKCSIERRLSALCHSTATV
# Sequence of CSNK1A1L (Q8N752 whole entry): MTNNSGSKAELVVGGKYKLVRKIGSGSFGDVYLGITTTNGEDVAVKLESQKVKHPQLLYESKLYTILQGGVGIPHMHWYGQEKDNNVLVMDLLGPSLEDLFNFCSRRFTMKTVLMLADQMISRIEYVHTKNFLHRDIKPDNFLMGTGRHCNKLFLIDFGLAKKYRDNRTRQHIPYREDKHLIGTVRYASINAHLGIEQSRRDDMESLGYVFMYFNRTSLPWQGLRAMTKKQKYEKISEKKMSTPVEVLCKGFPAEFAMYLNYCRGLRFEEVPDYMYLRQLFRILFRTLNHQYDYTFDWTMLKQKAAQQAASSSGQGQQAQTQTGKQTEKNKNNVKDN
# Sequence of NEK5 (Q6P3R8 whole entry): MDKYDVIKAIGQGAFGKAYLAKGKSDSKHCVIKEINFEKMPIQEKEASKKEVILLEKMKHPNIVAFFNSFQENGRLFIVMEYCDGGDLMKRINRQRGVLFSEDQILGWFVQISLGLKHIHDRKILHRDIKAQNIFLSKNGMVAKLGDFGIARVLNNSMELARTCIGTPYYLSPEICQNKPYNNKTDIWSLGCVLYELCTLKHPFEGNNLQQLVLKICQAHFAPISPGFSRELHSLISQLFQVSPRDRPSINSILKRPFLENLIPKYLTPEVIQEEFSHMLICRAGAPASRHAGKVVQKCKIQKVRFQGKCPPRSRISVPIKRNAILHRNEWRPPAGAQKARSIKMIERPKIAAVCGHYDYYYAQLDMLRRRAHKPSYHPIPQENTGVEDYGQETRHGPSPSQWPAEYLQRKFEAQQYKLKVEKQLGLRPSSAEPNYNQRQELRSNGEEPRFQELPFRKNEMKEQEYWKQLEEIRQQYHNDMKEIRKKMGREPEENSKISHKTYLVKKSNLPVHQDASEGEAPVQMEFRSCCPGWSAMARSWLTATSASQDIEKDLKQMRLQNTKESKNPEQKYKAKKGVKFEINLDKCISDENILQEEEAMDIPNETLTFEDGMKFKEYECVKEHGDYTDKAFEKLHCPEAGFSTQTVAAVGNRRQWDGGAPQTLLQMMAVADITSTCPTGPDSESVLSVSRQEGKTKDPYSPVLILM
# Sequence of AURKC (Q9UQB9 whole entry): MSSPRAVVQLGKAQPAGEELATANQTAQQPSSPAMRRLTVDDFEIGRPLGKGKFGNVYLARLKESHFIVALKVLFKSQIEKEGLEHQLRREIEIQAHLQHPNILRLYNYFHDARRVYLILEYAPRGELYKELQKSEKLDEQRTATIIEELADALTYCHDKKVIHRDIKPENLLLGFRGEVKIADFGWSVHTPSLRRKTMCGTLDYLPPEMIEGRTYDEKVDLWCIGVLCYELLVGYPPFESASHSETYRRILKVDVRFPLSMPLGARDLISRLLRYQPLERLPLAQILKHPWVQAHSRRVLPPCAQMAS
# Sequence of TEK (Q02763 23-1124): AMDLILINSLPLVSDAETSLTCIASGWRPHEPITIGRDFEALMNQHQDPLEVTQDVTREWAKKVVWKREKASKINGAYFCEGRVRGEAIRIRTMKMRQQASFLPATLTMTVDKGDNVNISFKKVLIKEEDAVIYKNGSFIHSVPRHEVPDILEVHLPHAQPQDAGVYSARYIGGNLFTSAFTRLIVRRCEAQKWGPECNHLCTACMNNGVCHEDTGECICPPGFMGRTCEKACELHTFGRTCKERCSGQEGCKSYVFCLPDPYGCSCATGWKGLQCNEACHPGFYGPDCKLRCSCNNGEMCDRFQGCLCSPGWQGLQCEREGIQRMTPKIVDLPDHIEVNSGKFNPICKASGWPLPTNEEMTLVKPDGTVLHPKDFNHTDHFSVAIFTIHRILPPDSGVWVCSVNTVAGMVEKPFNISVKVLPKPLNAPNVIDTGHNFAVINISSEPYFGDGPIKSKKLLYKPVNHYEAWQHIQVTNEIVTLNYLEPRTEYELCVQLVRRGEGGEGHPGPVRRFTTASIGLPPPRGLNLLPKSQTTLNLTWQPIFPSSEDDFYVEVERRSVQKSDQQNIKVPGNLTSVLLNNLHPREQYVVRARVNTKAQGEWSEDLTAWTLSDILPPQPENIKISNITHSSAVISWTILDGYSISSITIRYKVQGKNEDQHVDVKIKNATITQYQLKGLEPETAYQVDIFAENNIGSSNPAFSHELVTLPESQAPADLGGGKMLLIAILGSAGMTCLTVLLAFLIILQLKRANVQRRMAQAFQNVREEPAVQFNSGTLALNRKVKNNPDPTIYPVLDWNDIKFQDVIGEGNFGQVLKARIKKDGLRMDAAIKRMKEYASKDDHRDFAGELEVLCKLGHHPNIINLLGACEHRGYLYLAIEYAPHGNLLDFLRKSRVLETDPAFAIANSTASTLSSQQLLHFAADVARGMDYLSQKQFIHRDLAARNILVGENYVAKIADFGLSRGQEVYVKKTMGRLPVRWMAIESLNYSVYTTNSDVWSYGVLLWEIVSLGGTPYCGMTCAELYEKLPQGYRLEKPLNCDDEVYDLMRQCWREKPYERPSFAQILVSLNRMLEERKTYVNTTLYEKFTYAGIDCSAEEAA
# Sequence of NTRK3 (Q16288 32-839): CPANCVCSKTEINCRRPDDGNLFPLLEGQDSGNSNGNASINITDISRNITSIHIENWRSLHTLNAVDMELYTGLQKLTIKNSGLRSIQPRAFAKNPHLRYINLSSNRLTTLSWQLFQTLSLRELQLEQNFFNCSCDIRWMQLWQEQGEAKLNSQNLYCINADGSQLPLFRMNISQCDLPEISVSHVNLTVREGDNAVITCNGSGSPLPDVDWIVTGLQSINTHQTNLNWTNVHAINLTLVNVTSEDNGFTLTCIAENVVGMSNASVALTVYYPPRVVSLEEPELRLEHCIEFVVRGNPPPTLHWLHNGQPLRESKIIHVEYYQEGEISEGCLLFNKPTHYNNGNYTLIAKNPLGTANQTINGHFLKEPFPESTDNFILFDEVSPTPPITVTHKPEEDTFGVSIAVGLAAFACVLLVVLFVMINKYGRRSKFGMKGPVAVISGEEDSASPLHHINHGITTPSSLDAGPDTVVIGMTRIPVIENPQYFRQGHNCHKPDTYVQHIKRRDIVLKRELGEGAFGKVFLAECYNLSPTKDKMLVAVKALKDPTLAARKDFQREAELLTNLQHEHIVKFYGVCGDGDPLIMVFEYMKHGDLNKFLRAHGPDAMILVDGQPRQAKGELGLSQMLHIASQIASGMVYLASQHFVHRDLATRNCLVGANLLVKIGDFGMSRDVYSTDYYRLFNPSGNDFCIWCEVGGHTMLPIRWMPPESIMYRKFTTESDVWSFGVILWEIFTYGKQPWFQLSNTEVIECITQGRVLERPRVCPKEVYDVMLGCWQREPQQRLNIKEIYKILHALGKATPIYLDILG
smiles,measurement,setting,value
"CN(Cc1ccn2ncc(C(N)=O)c2c1)C(=O)Nc1ccc(OC(F)(F)F)cc1 [CDD-3031, 5-((1-methyl-3-(4-(trifluoromethoxy)phenyl)ureido)methyl)pyrazolo[1,5-a]pyridine-3-carboxamide]",selectivity in 192-kinase occupancy panel,192 kinases,greater selectivity for NTRK2 and NTRK1
same,receptor occupancy at 1 µM,"AURKC; average, read-out: AURKC kinase occupancy, Average (%)",4.09%
same,receptor occupancy at 1 µM,"AURKC; replicate 1, read-out: AURKC kinase occupancy, Replicate 1 (%)",-7.48%
same,receptor occupancy at 1 µM,"AURKC; replicate 2, read-out: AURKC kinase occupancy, Replicate 2 (%)",15.7%
same,receptor occupancy at 1 µM,"CSNK1A1L; average, read-out: CSNK1A1L kinase occupancy, Average (%)",4.58%
same,receptor occupancy at 1 µM,"CSNK1A1L; replicate 1, read-out: CSNK1A1L kinase occupancy, Replicate 1 (%)",9.24%
same,receptor occupancy at 1 µM,"CSNK1A1L; replicate 2, read-out: CSNK1A1L kinase occupancy, Replicate 2 (%)",-0.08%
same,receptor occupancy at 1 µM,"DYRK1A; average, read-out: DYRK1A kinase occupancy, Average (%)",6.5%
same,receptor occupancy at 1 µM,"DYRK1A; replicate 1, read-out: DYRK1A kinase occupancy, Replicate 1 (%)",8.58%
same,receptor occupancy at 1 µM,"DYRK1A; replicate 2, read-out: DYRK1A kinase occupancy, Replicate 2 (%)",4.42%
same,receptor occupancy at 1 µM,"NEK5; average, read-out: NEK5 kinase occupancy, Average (%)",5.02%
same,receptor occupancy at 1 µM,"NEK5; replicate 1, read-out: NEK5 kinase occupancy, Replicate 1 (%)",-0.81%
same,receptor occupancy at 1 µM,"NEK5; replicate 2, read-out: NEK5 kinase occupancy, Replicate 2 (%)",10.8%
same,receptor occupancy at 1 µM,"TEK; average, read-out: TEK kinase occupancy, Average (%)",10.2%
same,receptor occupancy at 1 µM,"TEK; replicate 1, read-out: TEK kinase occupancy, Replicate 1 (%)",13.1%
same,receptor occupancy at 1 µM,"TEK; replicate 2, read-out: TEK kinase occupancy, Replicate 2 (%)",7.34%
same,receptor occupancy at 1 µM,"ULK2; average, read-out: ULK2 kinase occupancy, Average (%)",4.48%
same,receptor occupancy at 1 µM,"ULK2; replicate 1, read-out: ULK2 kinase occupancy, Replicate 1 (%)",-5.12%
same,receptor occupancy at 1 µM,"ULK2; replicate 2, read-out: ULK2 kinase occupancy, Replicate 2 (%)",14.1%
same,AUC(0-inf),"[1]; mouse, blood",478 ± 87.8 µM·h
same,AUC(0-t),"[1]; mouse, blood",418 ± 62.1 µM·h
same,Cmax,"[1]; mouse, blood",37.1 ± 4.88 µM
same,Tmax,"[1]; mouse, blood",1.17 ± 0.76 h
same,half-life,"[1]; mouse, blood",8.03 ± 1.25 h
same,MRT last,"[1]; mouse, blood, read-out: MRT0-t",7.23 ± 0.38 h
same,MRT inf,"[1]; mouse, blood, read-out: MRT0-∞",10.7 ± 1.52 h
same,CL/F,[1],0.11 ± 0.02 mg/(hr*μmol/L)/kg
same,Vd/F,[1],1.22 ± 0.05 mg/(μmol/L)/kg
same,endometriotic lesion growth,endometriotic lesions,inhibiting endometriotic lesion growth
same,IC50,NTRK3,0.0253 µM
same,half-life,[2],13.1 h
same,microsomal CLint,[2],1.8 µL/min/mg
same,half-life,[3],> 16.7 h
